Measured values as given in US8592581B2, “Trisubstituted purine derivatives” (Cyclacel Limited, priority 2007, dated 2013).

How the values were obtained:
[1] = molecular target: T1, CYP2D6 (Homo sapiens (Human), UniProt P10635); assay: CYP2D6 inhibition, human liver microsomes, dextromethorphan; format: in vitro ADME
Procedure: (§1) Six test compound concentrations (0.05, 0.25, 0.5, 2.5, 5, 25 μM in DMSO; final DMSO concentration=0.25%) were incubated with human liver microsomes (0.5 mg/mL) and NADPH (1 mM) in the presence of the probe substrate dextromethorphan (5 μM) for 30 min at 37° C. The selective CYP2D6 inhibitor, quinidine, was screened alongside the test compounds as a positive control.
(§2) For the CYP1A incubations, the reactions were terminated by the addition of methanol, and the formation of the metabolite, resorufin, was monitored by fluorescence (excitation wavelength=535 nm, emission wavelength=595 nm). For the CYP2C9, CYP2C19, CYP2D6, and CYP3A4 incubations, the reactions were terminated by the addition of methanol containing internal standard. The samples were then centrifuged, and the supernatants were combined, for the simultaneous analysis of 4-hydroxytolbutamide, 4-hydroxymephenyloin, dextrorphan, and 1-hydroxymidazolam plus internal standard by LC-MS/MS using generic LC-MS/MS conditions. Formic acid in deionised water (final concentration=0.1%) was added to the final sample prior to analysis.

[2] = molecular target: T2, CYP2C19 (Homo sapiens (Human), UniProt P33261); assay: CYP2C19 inhibition, human liver microsomes, mephenyloin; format: in vitro ADME
Procedure: as §1, with “mephenyloin (25” for “dextromethorphan (5”, “60” for “30”, “CYP2C19” for “CYP2D6”, “tranylcypromine,” for “quinidine,”
as §2

[3] = molecular target: CYP2C8 (Homo sapiens (Human), UniProt P10632); assay: Cytochrome P450 substrate identification (Bactosomes) CYP2C8; format: in vitro ADME; conditions: pH 7.4, 5 μM test compound, up to 45 min, read-out: half life in the presence of CYP2C8
Procedure: (§3) cDNA expressed human CYP450 enzyme preparations co-expressed with human NADPH cytochrome P450 reductase (Bactosomes™) were supplied by Cypex Ltd. Bactosomes™ (final P450 concentration CYP1A2 100 pmol/mL, CYP2C8 50 pmol/mL, CYP2C9 25 pmol/mL, CYP2C19 100 pmol/mL, CYP2D6 50 pmol/mL and CYP3A4 25 pmol/mL), 0.1M phosphate buffer pH7.4 and test compound (final substrate concentration=5 μM; final DMSO concentration=0.25%) were pre-incubated at 37° C. prior to the addition of NADPH (final concentration=1 mM) to initiate the reaction. Incubations were also performed using control bactosomes (no P450 enzymes present) to reveal any non-enzymatic degradation. The final incubation volume was 25 μL. Compounds known to be metabolised specifically by each CYP450 isoform were used as control compounds.
(§4) Each compound was incubated singly for 0, 5, 15, 30 and 45 min with each CYP isoform. The reactions were stopped by the addition of 50 μL methanol containing internal standard at the appropriate time points. The incubation plates were centrifuged at 2500 rpm for 20 min at 4° C. to precipitate the protein. Following protein precipitation, the sample supernatants were combined in cassettes of up to four compounds and analysed using generic LC-MS/MS conditions.
(§5) The In peak area ratio (which has been corrected for any loss in the incubations with the control bactosomes) was plotted against time and the gradient of the line determined.
(§6) The elimination rate constant (k)=(−gradient)

[4] = molecular target: CYP1A (Homo sapiens, UniProt P05177); assay: CYP1A inhibition, human liver microsomes, ethoxyresorufin; format: in vitro ADME
Procedure: as §1, with “concentration=0.35%)” for “concentration=0.25%)”, “(0.25” for “(0.5”, “ethoxyresorufin (0.5” for “dextromethorphan (5”, “5” for “30”, “CYP1A” for “CYP2D6”, “alpha-naphthoflavone,” for “quinidine,”
as §2

[5] = molecular target: T3, CYP2C9 (Homo sapiens (Human), UniProt P11712); assay: CYP2C9 inhibition, human liver microsomes, tolbutamide; format: in vitro ADME
Procedure: as §1, with “(1” for “(0.5”, “tolbutamide (120” for “dextromethorphan (5”, “60” for “30”, “CYP2C9” for “CYP2D6”, “sulphaphenazole,” for “quinidine,”
as §2

[6] = molecular target: T1, CYP2D6; assay: Cytochrome P450 substrate identification (Bactosomes) CYP2D6; format: in vitro ADME; conditions: pH 7.4, 5 μM test compound, up to 45 min, read-out: half life in the presence of CYP2D6
Procedure: as §3, §4, §5, §6

[7] = molecular target: T3, CYP2C9; assay: Cytochrome P450 substrate identification (Bactosomes) CYP2C9; format: in vitro ADME; conditions: pH 7.4, 5 μM test compound, up to 45 min, read-out: half life in the presence of CYP2C9
Procedure: as §3, §4, §5, §6

[8] = molecular target: T4, CYP3A4 (Homo sapiens (Human), UniProt P08684); assay: CYP3A4 inhibition, human liver microsomes, midazolam; format: in vitro ADME; conditions: human liver microsomes
Procedure: as §1, with “concentration 0.26%)” for “concentration=0.25%)”, “(0.25” for “(0.5”, “midazolam (2.5” for “dextromethorphan (5”, “5” for “30”, “CYP3A4” for “CYP2D6”, “ketoconazole,” for “quinidine,”
as §2

[9] = molecular target: T2, CYP2C19; assay: Cytochrome P450 substrate identification (Bactosomes) CYP2C19; format: in vitro ADME; conditions: pH 7.4, 5 μM test compound, up to 45 min, read-out: half life in the presence of CYP2C19
Procedure: as §3, §4, §5, §6

[10] = molecular target: T4, CYP3A4; assay: Cytochrome P450 substrate identification (Bactosomes) CYP3A4; format: in vitro ADME; conditions: human, pH 7.4; Bactosomes, 5 μM test compound, up to 45 min; read-out: half life in the presence of CYP3A4
Procedure: as §3, §4, §5, §6

[11] = tested on: Mcl-1; assay: Mcl-1 downregulation in H460 cells by Western blotting; format: cell-based; conditions: H460 cells, 24 hours, top concentration close to IC50
Procedure: The media was removed and the adherent cells washed with 5 ml PBS. […] Proteins were transferred to nitrocellulose membranes (Schleicher & Schuell, Dassel, Germany) using wet electrophoretic transfer. Membranes were stained with Ponceau S to confirm equal loading before blocking in 5% nonfat milk in PBS with 0.05% Tween 20 (PBSTM) for 2 hours. Membranes were incubated overnight at 4° C. with primary antibody (rabbit polyclonal antibody to Mcl-1, Santa Cruz), diluted 1:1000 in PBSTM. Membranes were washed 2×5 minute followed by 2×10 minute in PBS and 0.05% Tween 20 (PBST) and incubated for 1 hour in PBSTM containing horseradish peroxidase-conjugated secondary antibody. Membranes were washed as before and incubated with enhanced chemiluminescence solution (Amersham) and exposed to X-ray film (Amersham).
In a second experiment the effect of additional compounds on Mcl-1 levels was investigated.

T1 sequence (P10635 whole entry): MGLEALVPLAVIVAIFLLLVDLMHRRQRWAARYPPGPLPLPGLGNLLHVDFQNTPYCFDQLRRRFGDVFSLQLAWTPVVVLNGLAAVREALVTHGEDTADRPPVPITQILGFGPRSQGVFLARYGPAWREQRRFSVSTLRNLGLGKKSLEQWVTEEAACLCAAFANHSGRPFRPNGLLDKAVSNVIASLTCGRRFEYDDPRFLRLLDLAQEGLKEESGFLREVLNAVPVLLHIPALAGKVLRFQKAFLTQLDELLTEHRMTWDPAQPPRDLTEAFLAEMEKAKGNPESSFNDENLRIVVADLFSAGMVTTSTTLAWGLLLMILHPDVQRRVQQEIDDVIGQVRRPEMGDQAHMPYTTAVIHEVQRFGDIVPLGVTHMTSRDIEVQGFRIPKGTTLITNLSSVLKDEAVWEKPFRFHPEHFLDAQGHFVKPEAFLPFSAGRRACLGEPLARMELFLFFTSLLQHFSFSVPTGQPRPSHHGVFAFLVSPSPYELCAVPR
CYP2C8, sequence (P10632 whole entry): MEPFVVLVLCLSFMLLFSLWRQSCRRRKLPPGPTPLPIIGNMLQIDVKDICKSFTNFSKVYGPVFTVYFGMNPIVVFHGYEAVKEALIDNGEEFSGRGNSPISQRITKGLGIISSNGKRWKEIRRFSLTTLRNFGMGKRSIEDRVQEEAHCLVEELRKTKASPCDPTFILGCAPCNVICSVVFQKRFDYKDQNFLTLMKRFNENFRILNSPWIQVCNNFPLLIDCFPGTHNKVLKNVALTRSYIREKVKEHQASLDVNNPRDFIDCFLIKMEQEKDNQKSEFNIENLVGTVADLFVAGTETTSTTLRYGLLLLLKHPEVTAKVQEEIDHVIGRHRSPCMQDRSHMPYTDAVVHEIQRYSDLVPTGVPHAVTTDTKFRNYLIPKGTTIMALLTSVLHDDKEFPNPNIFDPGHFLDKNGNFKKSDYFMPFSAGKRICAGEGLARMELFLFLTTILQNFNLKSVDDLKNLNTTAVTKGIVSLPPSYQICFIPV
T2 sequence (P33261 whole entry): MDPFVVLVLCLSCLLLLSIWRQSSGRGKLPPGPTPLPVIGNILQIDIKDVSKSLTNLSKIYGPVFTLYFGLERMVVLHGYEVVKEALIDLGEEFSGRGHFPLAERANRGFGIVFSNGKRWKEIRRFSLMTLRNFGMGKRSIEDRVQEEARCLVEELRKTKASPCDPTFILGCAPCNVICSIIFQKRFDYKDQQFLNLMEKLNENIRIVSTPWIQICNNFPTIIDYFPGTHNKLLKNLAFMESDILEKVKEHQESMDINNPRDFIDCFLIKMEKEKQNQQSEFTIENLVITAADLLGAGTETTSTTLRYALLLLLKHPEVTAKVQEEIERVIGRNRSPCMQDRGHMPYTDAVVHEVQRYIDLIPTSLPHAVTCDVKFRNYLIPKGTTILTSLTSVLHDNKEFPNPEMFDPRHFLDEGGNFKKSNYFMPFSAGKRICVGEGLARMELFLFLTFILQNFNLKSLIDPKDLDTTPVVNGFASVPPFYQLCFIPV
T3 sequence (P11712 whole entry): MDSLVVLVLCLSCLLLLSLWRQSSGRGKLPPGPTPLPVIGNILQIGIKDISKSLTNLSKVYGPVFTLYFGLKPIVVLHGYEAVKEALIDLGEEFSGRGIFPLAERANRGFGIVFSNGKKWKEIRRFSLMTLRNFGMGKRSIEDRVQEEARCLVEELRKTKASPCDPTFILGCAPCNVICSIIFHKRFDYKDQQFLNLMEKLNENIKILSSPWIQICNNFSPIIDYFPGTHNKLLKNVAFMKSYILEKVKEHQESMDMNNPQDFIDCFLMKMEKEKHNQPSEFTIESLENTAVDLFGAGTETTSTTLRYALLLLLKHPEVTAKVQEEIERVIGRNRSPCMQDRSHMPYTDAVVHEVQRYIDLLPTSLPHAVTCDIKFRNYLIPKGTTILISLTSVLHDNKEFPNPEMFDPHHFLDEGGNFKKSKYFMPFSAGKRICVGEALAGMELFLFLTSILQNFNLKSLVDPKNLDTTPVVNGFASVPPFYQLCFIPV
T4 sequence (P08684 whole entry): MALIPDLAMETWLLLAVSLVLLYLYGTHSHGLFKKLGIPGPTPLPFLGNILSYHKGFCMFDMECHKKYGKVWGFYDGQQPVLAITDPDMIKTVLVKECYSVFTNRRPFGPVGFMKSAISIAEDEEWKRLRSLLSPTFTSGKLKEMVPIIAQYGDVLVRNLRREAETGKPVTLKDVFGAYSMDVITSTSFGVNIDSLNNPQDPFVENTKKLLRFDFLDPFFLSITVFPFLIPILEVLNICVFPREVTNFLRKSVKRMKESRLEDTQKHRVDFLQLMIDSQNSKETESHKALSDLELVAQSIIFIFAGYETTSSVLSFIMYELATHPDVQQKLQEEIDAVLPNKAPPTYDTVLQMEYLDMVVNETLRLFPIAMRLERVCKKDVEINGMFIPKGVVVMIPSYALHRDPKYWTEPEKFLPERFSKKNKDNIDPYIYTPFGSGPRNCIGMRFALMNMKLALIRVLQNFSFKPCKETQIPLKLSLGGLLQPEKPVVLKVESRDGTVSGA
CYP1A, sequence (P05177 2-516 limits assumed): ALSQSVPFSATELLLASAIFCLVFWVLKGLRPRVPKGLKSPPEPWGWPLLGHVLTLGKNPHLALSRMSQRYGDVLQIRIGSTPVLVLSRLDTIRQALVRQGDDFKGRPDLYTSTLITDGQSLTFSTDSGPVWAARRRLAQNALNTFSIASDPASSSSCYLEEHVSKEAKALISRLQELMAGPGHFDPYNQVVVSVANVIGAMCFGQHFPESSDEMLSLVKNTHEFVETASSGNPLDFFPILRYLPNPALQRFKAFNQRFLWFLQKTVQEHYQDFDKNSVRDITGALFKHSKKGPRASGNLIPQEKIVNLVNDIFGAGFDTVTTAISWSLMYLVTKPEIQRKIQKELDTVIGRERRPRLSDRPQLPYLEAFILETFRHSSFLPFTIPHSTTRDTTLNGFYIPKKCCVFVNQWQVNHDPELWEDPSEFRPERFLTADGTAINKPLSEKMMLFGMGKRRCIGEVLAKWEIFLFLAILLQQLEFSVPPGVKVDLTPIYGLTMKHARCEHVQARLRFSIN

| SMILES | IC50 [1] | IC50 [2] | half-life at 5 μM [3] | IC50 at 5 min [4] | IC50 [5] | half-life at 5 μM [6] | half-life at 5 μM [7] | IC50 [8] | half-life at 5 μM [9] | half-life at 5 μM [10] | changes in Mcl-1 levels (in words) [11] |
| --- | --- | --- | --- | --- | --- | --- | --- | --- | --- | --- | --- |
| CC[C@@H](Nc1nc(NCc2cccnc2)c2ncn(C(C)C)c2n1)C(C)(C)O [Compound [A1]] | > 25 µM | 19.9 µM | > 45 min | > 25 µM | > 25 µM | > 45 min | > 45 min | 1.63 µM | 58.3 min | 28.3 min | – |
| CC[C@H](CO)Nc1nc(NCc2ccccc2)c2ncn(C(C)C)c2n1 [Seliciclib, seliciclib, reference compound] | – | – | – | – | – | – | – | – | – | – | very modest changes |
| CC[C@H](Nc1nc(NCc2cccnc2)c2ncn(C(C)C)c2n1)C(C)(C)O [[A2]] | > 25 µM | > 25 µM | > 45 min | > 25 µM | > 25 µM | > 45 min | > 45 min | 0.48 µM | > 45 min | 32.6 min | – |
| CC[C@H](Nc1nc(NCc2cccnc2)c2ncn(C(C)C)c2n1)[C@@H](C)O [[A3]] | > 25 µM | > 25 µM | > 45 min | > 25 µM | > 25 µM | > 45 min | > 45 min | 1.88 µM | > 45 min | 18 min | – |
